Measurements from patent EP4527906A1, “OXIDATION RESISTANT COMPOSITIONS OF DINAHYDROHEXITOLS CONTAINING BENZOPHENONE OR ITS DERIVATIVES” (ROQUETTE FRERES, priority 2023, dated 2025).

Legend:
Type in all cases: physicochemical
[1] = Yellow coloration index measurement (ASTM E313), before thermal treatment; details: isosorbide solution with 100 ppm antioxidant, measured as a liquid at 65°C
Protocol: (§1) The yellow coloration index, expressed in YID units, was measured using a Colorflex EZ from Hunterlab according to ASTM E313. The spectrophotometer is a sealed optics, 256-elements diode array, having a 400-700 nm spectral range and a high-resolution concave holographic grating. 55 grams of composition are placed at 65°C, in a 64 mm diameter cylindric cell including a ring and white disk cap. The coloration of the composition was measured as a liquid at 65°C.

[2] = Thermal treatment test: yellow coloration index after heating; details: for Yellow coloration index After-Before: difference after minus before thermal test, 100 ppm antioxidant; for Yellow coloration index after thermal test: isosorbide solution with 100 ppm antioxidant, 245°C for 40 minutes under nitrogen
Protocol: as §1
(§2) The method hereafter is described for isosorbide as the chemical compound having at least one heterocycle, and is also applicable to any chemical compound having at least one heterocycle.
The thermal stability of compositions of isosorbide, was studied according to the following protocol: 70 g of a 80 wt% solution of isosorbide in water was placed in a three-necked round flask and inerted with high purity nitrogen (purity >99.9%) during 10 minutes at a flowrate of around 2000 mL/min. The product was then heated at 245°C using an oil bath for 40 minutes under a 500 mL/min nitrogen flowrate. Then the product was cooled down to 80°C under the same nitrogen flowrate and yellow coloration measurement (YID value) was measured immediately.
Coloration before and after "thermal treatment" as well as their difference is related to the product thermal stability, i.e. to the sensitivity of the product to oxidation.

[3] = PetroOxy test: induction time (resistance to oxidation)
From the text: The resistance of compositions according to the invention to oxidation may indeed be characterized by this measurement called the "PetroOxy test" which consists in measuring over time the pressure inside a cell loaded with a sample of composition exposed to an initial pressure of dioxygen and a constant temperature. The protocol of this test is described below after.
as §2
3 grams of a purified 50 wt% dry matter isosorbide solution in distilled water with or without the addition of antioxidant are weighed precisely in a glass cup and then placed in the hermetic enclosure of the measuring device "PetroOxy" model 13-3002 from Petrotest, now Anton Paar GmbH. The air present in the cell is purged 3 times at room temperature with pure oxygen via a pressurized cylinder (Alphagas, purity >99.5%). The temperature and working pressure of pure oxygen is then set at 120°C and 700 kPa (7 bars) of oxygen. The pressure is continuously monitored during the experiment. The decrease in pressure in the test chamber is due to oxygen consumption during oxidation reactions of the sample studied. The variation in relative pressure during the experiment makes it possible to determine the time after which the sample begins its degradation by oxidation, which is called induction time, also referred as "OIT", under the test conditions.
The induction time of the sample is determined as follows:
The relative pressure of oxygen consumption is given by the relation (Pmax -Pt)/Pmax. Pmax is the maximum pressure attained by the system during the measurement, corresponding to the maximum pressure at the beginning of time, and Pt is the pressure as a function of time when oxygen is consumed. The induction time of the sample is given by the inflection point of the oxygen consumption curve, i.e. the intersection of the two linear domains as shown on figure Fig.1.
The longer the induction time, the greater the oxidation resistance of the sample. To calculate precisely this parameter, a calculation method by linear regression between the two-line segments before and after the inflection point is performed.

[4] = isosorbide aqueous solution with 100 ppm antioxidant, 120°C and 7 bars of oxygen
[5] = listed as 4,4'-dihydroxy-benzophenone

## O=C(c1ccccc1)c1ccccc1 [Sample 2.1, Benzophenone]
[1]
  Yellow coloration index before thermal test: 1.3 YID
[2]
  Yellow coloration index After-Before: 6.4 YID
  Yellow coloration index after thermal test: 7.7 YID
[2]; listed as benzophenone
  Yellow coloration index after thermal test: lower than 10 YID
[3]; change of induction time versus isosorbide solution without antioxidant (3.5 h), 100 ppm antioxidant
  % versus no antioxidant: about 9%
[3]; [4]
  Induction time: 3.8 h

## O=C(c1ccc(O)cc1)c1ccc(O)cc1 [Sample 2.2, 4,4'-dihydroxy-benzophenone]
[1]
  Yellow coloration index before thermal test: 4.2 YID
[1]; [5]
  Yellow coloration index before thermal test: lower than 10 YID
[2]
  Yellow coloration index After-Before: 5.1 YID
  Yellow coloration index after thermal test: 9.3 YID
[2]; [5]
  Yellow coloration index after thermal test: lower than 10 YID
[3]; [4]
  Induction time: 3.9 h

## COc1ccc(C(=O)c2ccccc2)c(O)c1 [Sample 2.3, 2-hydroxy-4-methoxybenzophenone]
[1]
  Yellow coloration index before thermal test: 2.2 YID
[2]
  Yellow coloration index After-Before: 3.9 YID
  Yellow coloration index after thermal test: 6.1 YID
[2]; listed as 2-hydroxy-4-methoxy-benzophenone
  Yellow coloration index after thermal test: below 7 YID
[3]; [4]
  Induction time: 4.6 h
[3]; isosorbide aqueous solution with 100 ppm antioxidant, 120°C and 7 bars of oxygen, listed as 2-hydroxy-4-methoxy benzophenone
  Induction time (hours): around 4,6 hours

## COc1ccc(C(=O)c2ccccc2O)c(O)c1 [Sample 2.4, 2,2'-dihydroxy-4-methoxybenzophenone]
[1]
  Yellow coloration index before thermal test: 12.3 YID
[2]
  Yellow coloration index After-Before: 37 YID
  Yellow coloration index after thermal test: 49.3 YID
[3]; [4]
  Induction time: 5.2 h

## CCCOC(=O)c1cc(O)c(O)c(O)c1 [Sample 3, Propyl gallate, reference compound]
[1]
  Yellow coloration index before thermal test: 9.1 YID
[2]
  Yellow coloration index After-Before: 5.2 YID
  Yellow coloration index after thermal test: 14.3 YID
